Test [1] deals with endotoxin (LPS)-preadministered partially-hepatectomized mice. Nature of the test: LPS-preadministered partially-hepatectomized mice model for impaired liver regeneration, PCNA staining. The class given is in vivo, mouse. Conditions: Example 2, 200 μg/head i.v., 8 times; for improvement of impaired liver regeneration due to preadministration of LPS: PCNA staining, FIG. 3 and 4.
Test [2] concerns active TGF-β1. Nature of the test: Amount of active TGF-β1 in conditioned medium of hepatic stellate cells (ELISA). Particulars: for amount of active TGF-β generated into the conditioned medium, of the control / TGF-β (active TGF-β generated into the conditioned medium): Example 1, peptide 1 mM; for TGF-β (active TGF-β generated into the conditioned medium): Table 1; for inhibition of generation of the active TGF-β in the conditioned medium observed in control cells: Example 4, peptide 0.5 mM. Type of test: cell-based, rat. On the procedure: According to the method previously reported (Okuno M. et al., Gastroenterology 2001; 120: 1784-1800), hepatic stellate cells were isolated from the liver of male Wistar rats (body weight: 350 to 400 g; Japan Clea), and the isolated cells were then seeded in a concentration of 1×10^6 cells/dish on a 3.5-cm culture plastic dish. Thereafter, the cells were cultured in 1 ml of Dulbecco's modified Eagle medium (DMEM; manufactured by SIGMA) containing 10% fetal calf serum (FCS; manufactured by GIBCO).
A 60 mM aqueous stock solution of each peptide was prepared, and the peptide was then dissolved in a medium to make a final concentration of 1 mM. Until the 3rd day of isolation, the aforementioned cells were treated in a DMEM medium containing 10% FCS. On the 4th day, the medium was exchanged with serum free DMEM containing 0.1% bovine serum albumin (BSA) and each peptide with a final concentration of 1 mM, and the culture was further continued for 2 to 4 days. Thereafter, the culture medium was collected as a conditioned medium, and the amount of active TGF-β1 present in the conditioned medium was measured using an ELISA kit manufactured by PROMEGA. At the same time, the state of the cells was observed under a microscope (DMIRB; manufactured by Leica) and was then photographed.
Each peptide was dissolved in a medium to a final concentration of 0.5 mM (approximately 500 μg/ml). At the 1st day of isolation, the aforementioned cells were treated in a DMEM medium containing 10% FCS. On the 2nd day, the medium was changed with serum free DMEM containing 0.1% BSA and each peptide at a final concentration of 0.5 mM, and the culture was further continued for 2 to 7 days. Thereafter, the culture medium was collected as a conditioned medium, and the amount of active TGF-β1 present in the conditioned medium was then quantitated using an ELISA kit manufactured by PROMEGA. At the same time, the state of the cells was observed under a microscope (DMIRB; manufactured by Leica) and photographed.

For test [3], the system named is TGF-β1. Nature of the test: Amount of TGF-β1 in hepatic tissues of LPS-preadministered partially-hepatectomized mice (ELISA). The class given is in vivo, mouse. Conditions: 200 μg/head i.v.; for Hepatic TGF-β1 Contents: Table 3. On the procedure: A liver extract was prepared from approximately 100 mg of the hepatic tissues prepared for the use in protein quantitation in 11.2 above, according to the method of Okuno M. et al. (Okuno M. et al., Gastroenterology 2001; 120: 1784-1800). The amount of TGF-β1 in the extract was quantitated using an ELISA kit manufactured by PROMEGA. The quantitated TGF-β1 amount was presented as a pg/mg of protein.
A liver extract was prepared from approximately 30 mg of the hepatic tissues prepared for the use in protein quantitation in 11.2 above, according to the method of Okuno M. et al. (Okuno M. et al., Gastroenterology 2001; 120: 1784-1800). The amount of TGF-β1 in the extract was determined using an ELISA kit manufactured by PROMEGA. The amount of TGF-β1 was presented as a pg/mg protein of the sample. Other conditions were the same as those described in Example 2.
On the technique in general: ELISA stands for enzyme-linked immunosorbent assay.

Test [4] deals with endotoxin (LPS)-preadministered partially-hepatectomized mice. Nature of the test: LPS-preadministered partially-hepatectomized mice model for impaired liver regeneration, PCNA staining. The class given is in vivo, mouse. Conditions: Example 5, 200 μg/head i.v., 8 times; for percentage of PCNA positive cells: 48 hours after PH, FIG. 10; for improvement of impaired liver regeneration caused by preadministration of LPS: PCNA staining, FIG. 9. On the procedure: For the experiment, 26 five-week-old male C3H/HeN mice were used. After completion of quarantine and environmental acclimatization, the mice were divided into the following 5 groups according to the body weight of each mouse on the day of grouping. These include, a group to which saline was preadministered and saline was then administered (G1: n=6); a group to which LPS was preadministered and saline was then administered (G2: n=6); a group to which LPS was preadministered and QP peptide was then administered (G3: n=4); a group to which LPS was preadministered and QPA peptide was then administered (G4: n=4); and a group to which LPS was preadministered and T200 peptide was then administered (G5: n=6) (Table 2).
After starting the test, 7 μg of LPS (saline in the case of G1) was intraperitoneally administered. Forty-eight hours later, partial hepatectomy was carried out on all the mice. Another forty-eight hours later, all the surviving mice were subjected to an autopsy. In the autopsy, blood was collected. Thereafter, 1 to 3 mice from each group were subjected to systemic perfusion with 4% paraformaldehyde (PFA), and the liver was then excised. All the excised lobes were embedded in an embedding agent “Tissue Mount” in a frozen state. On the other hand, the remaining 1 to 3 mice from each group were not subjected to systemic perfusion, and a portion of the liver was fixed with formalin, and the remaining portion was collected to be used as a frozen sample (used for mRNA and for protein quantitation). The organ that had been fixed with formalin was processed into a block, and it was then preserved together with the frozen sample in a deep freezer at −80° C.
Preparation method: A small amount of saline was added to one vial container that contained 5 mg of LPS, and it was then dissolved therein. Subsequently, the resultant solution was transferred into another container, and saline was then gradually added thereto to a total amount of 5 mL. The thus obtained solution was defined as a 1 μg/μL solution. 350 μL was collected from the obtained solution by precise weighing, and it was then added to a container that contained 4.65 mL of a sterilized normal saline solution (solvent). Thereafter, the mixed solution was filtrated and sterilized using a 0.22-μm filter, and the resultant was used as a sample to be administered. 7.2 LPS Administration Method Dose: 7 μg/head Administration route: intraperitoneal administration Administration volume: 0.1 mL/head Administration number: once (single administration) Administration timing: 48 hours before partial hepatectomy Target animal: G2 to G5 (To G1, saline was administered.) 8. Administration of Test Substance 8.1 Preparation of Peptide-Administering Sample Preparation frequency: once Preparation method: A peptide was dissolved in saline to a concentration of 2 mg/ml, and the resultant was used as a sample to be administered. Preservation method: The sample was preserved in a refrigerator before use. (The temperature was set at 4° C.) 8.2 Peptide Administration Method Dose: 200 μg/head Administration route: intravenous administration Administration volume: 0.11 mL/head Administration timing: 50, 38, 24, 14 and 2 hours before, and 10, 24 and 34 after partial hepatectomy Number of administration: twice/day, for 4 days (in principle, at 9:00 and at 19:00), 8 times in total Target animal: […] (To G1 and G2, saline was administered.) 9. Partial Hepatectomy (⅔ Partial Hepatectomy; PH) 9.1 Treating Method
Using a rotary microtome (Leica), a hepatic tissue section with a thickness of 5 μm was prepared from the embedded hepatic tissues. A proliferating cell nuclear antigen (PCNA; a proliferating cell marker) was stained according to the previously reported method (Greenwell A. et al., Cancer Lett 1991; 59: 251-256) using a Histofine kit (Nichirei Corporation). […]

“Also recorded” adds a separate entry of the source. Where no end group is shown, it is not given here.

On to “N-52QILSAAAAASP62-C (QILSAAALASP) [QPA peptide, mutant of QP peptide with Lys56, Leu57, Arg58 and Leu59 substituted with Ala]”, for which the “percentage of PCNA positive cells” value in test [1] (48 hours after PH, FIG. 4) is 47%. The “improvement of impaired liver regeneration due to preadministration of LPS” value (“improvement … to preadministration of LPS” below) in test [1] is on record as “significantly improved”. In test [2], the “amount of active TGF-β generated into the conditioned medium, of the control” value worked out at 2%; the “TGF-β (active TGF-β generated into the conditioned medium)” value turned out to be 4 ± 1 pg/mL; the “inhibition of generation of the active TGF-β in the conditioned medium observed in control cells” value (“inhibition” for short) is reported as 25%. In test [3] (Example 2, LPS + PH), the “hepatic contents of TGF-β1, times higher than the value of the control group” value (shortened to “hepatic contents of TGF-β1”) is “approximately 1.4 times” and the “Hepatic TGF-β1 Contents” value is given as 10 ± 11 pg/mg protein. Besides, in test [3] (Example 5, LPS + PH, FIG. 11), the “hepatic contents of TGF-β1” value is recorded as around 0.7 times. For the same substance, in test [4], the “percentage of PCNA positive cells” value was found to be 70% and the “improvement of impaired liver regeneration caused by preadministration of LPS” value (shortened to “improvement … by preadministration of LPS”) is on record as “significantly improved”.

For the substance “N-52QILSQQQQASP62-C [QPQ peptide, mutant of QP peptide with Lys56, Leu57, Arg58 and Leu59 substituted with Gln]”, the “inhibition” value in test [2] came out at 90%. The “hepatic contents of TGF-β1” value in test [3] (Example 5, LPS + PH, FIG. 11) is “approximately 1.6 times”. Also, in test [4], the “percentage of PCNA positive cells” value is 64% and the “improvement … by preadministration of LPS” value was “significantly improved”.

In the case of “TGVVRQWLSRG [T200 peptide, reference compound]”, the “improvement … to preadministration of LPS” value in test [1] is “did not exhibit such an improving effect”. Besides, the “improvement … to preadministration of LPS” value in test [1] (listed as P200 peptide) is recorded as “did not exhibited any such improving effects”. Also, in test [2], the “amount of active TGF-β generated into the conditioned medium, of the control” value is 74% and the “TGF-β (active TGF-β generated into the conditioned medium)” value was 160 ± 19 pg/mL. In test [3] (Example 2, LPS + PH), the “hepatic contents of TGF-β1” value is “approximately 3 times” and the “Hepatic TGF-β1 Contents” value came out at 20 ± 26 pg/mg protein. In test [3] (Example 5, LPS + PH, FIG. 11), the “hepatic contents of TGF-β1” value was 3.1 times. Besides, in test [4], the “percentage of PCNA positive cells” value is given as 45% and the “improvement … by preadministration of LPS” value is given as “did not exhibit such an improving effect”.

Take QILSKLRLASP [QP peptide]: the “improvement … to preadministration of LPS” value in test [1] is on record as “significantly improved; also recorded: completely improved”. Also, in test [2], the “inhibition” value is given as 55%. Besides, in test [3] (Example 5, LPS + PH, FIG. 11), the “hepatic contents of TGF-β1” value is “approximately 1.6 times”. In test [4], the “percentage of PCNA positive cells” value amounted to 66% and the “improvement … by preadministration of LPS” value is “significantly improved”.

Source of the values: US7732401B2, “Inhibitor of TGF-β activation reaction” (Riken, priority 2007, dated 2010).
